Consider eight compounds from patent publication US20130072506A1, “6,8-DISUBSTITUTED PURINE COMPOSITIONS” (priority 2011, published 2013).

Data set [1] relates to SKH-1 hairless mice. The data set can be described thus: Hairless mouse assay: skin moisture content. The conditions noted are these: compared with the vehicle. Format: in vivo. From the text: Evaluation of cutaneous effects of new topical compounds in the hirless mouse assay. The purpose of this study was to evaluate new topical compounds for their safety and efficacy as topical skin anti-aging treatments. The hairless mouse model is a well established model for studying the treatments of photoaging. […] The present study was used to investigate a new class of anti-aging compounds in comparison to classical ones. […] Topical compounds and vehicle controls were be applied daily (Monday-Friday) for 3 weeks to the dorsal skin of hairless mice. At baseline (prior to the 1st treatment), and weekly, the dorsal skin was measured for: transepidermal water loss (TEWL); skin moisture content; and skin elasticity.
(§1) Experimental Design. 48 female SKH-1 hairless mice (5 weeks old, 20-25 grams, Charles River Laboratories, Wilmington, Mass.) are individually housed in filter-top cages, and acclimated for 5-7 days after delivery. The mice are divided into 8 treatment groups (n=6), including two different control groups (untreated control, vehicle control) and a therapeutic control (tretinoin 0.05% Renova™ cream). Cage cards are marked to indicate treatment groups 1-8. Water and mouse chow are provided ad libitum.
Skin Moisture Content & Elasticity. The measurements of skin moisture content and skin elasticity are important noninvasive methods used to characterize the effects of moisturizers and anti-wrinkle effects on skin. A DermaLab™ combination instrument were used to measure the skin moisture content and elasticity of the target skin sites at baseline and at weekly intervals. This instrument is equipped with dual probes which are placed on the skin surface and a quantitative measurement taken of the respective parameters and the measurements recorded on an integrated computer. Mean measurements was determined for each treatment group over time, and comparative statistics used to evaluate product effectiveness.
(§2) Topical Treatments. Beginning on Treatment Day 1, test products are applied topically each morning (Monday through Friday) after erythema evaluations for 3 weeks. Using a positive displacement pipette, 20 mg of each agent is applied to a 2 cm×2 cm area of the center midline of the back. The material was spread across the treatment area with the pipette tip.

In data set [2] the test system is SKH-1 hairless mice. The data set can be described thus: Hairless mouse assay: epidermal bromodeoxyuridine (BrdU) staining. Format: in vivo. The conditions noted are these: epidermal BrdU staining after 3 weeks of topical treatment, 0.1% (tretinoin 0.05%).
Source text: This study determined the effect of topical compound formulations on epidermal cell proliferation using bromodeoxyuridine as an immunohistochemical marker of cell proliferation. Histological examination of the treated and control skin were used to determine cutaneous effects of the topical compounds. Topical tretinoin 0.05% (Renova™) was used as a therapeutic control.
as §1, §2
Bromodeoxyuridine Injection. All animal groups are injected with bromodeoxyuridine (100 mg/kg) I.P. 4 hours after the final application. Animals are sacrificed by CO2 inhalation 3 hours later followed by cervical dislocation. The test sites are excised, and 6 mm punch biopsies are obtained from each treatment site, and from untreated controls. Biopsies are placed into labeled vials containing 4% neutral buffered formalin for paraffin embedding and anti-BrdU staining.
Bromodeoxyuridine Immunohistochemical Staining. Paraffin sections are cut to a […] thickness and stained using the BrdU Immuno-histochemistry kit (X1545K from Exalpha Biologicals, Inc.) and a standard staining protocol. The slides are weakly counterstained in Mayer's hematoxylin and scored under a light microscope for the number of BrdU-positive cells per mm of epidermis for each section. The data are expressed as mean BrdU-positive cells/mm for each treatment group. Differences in BrdU labeling in the treatment groups are statistically analyzed using the Students t-test. Representative photographs are taken of the histological sections of the BrdU-positive staining cells.
On the technique in general: Dividing cells build labelled thymidine or BrdU into new DNA.

In data set [3] the test system is Human diploid fibroblast BJ. The data set can be described thus: In vitro cytotoxic activity (metabolisation of MTT). Format: cell-based. As to conditions: 72 hours, BJ passage 18-22. In a few lines: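 BJ human diploid fibroblasts (passage 18-22) exposed 72 h to compounds at 0-200 μM (top dose lowered if solubility-limited), pentaplicate. MTT 0.5 mg/ml final added for 3 h, formazan dissolved in DMSO, absorbance at 570 nm. GI20 (20% drop in mitochondrial dehydrogenase activity) taken from dose-response curves.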

The next data set relates to excised wheat leaf tips. The data set can be described thus: Senescence inhibition on winter wheat leaf segments (chlorophyll retention). Format: in vivo, Triticum aestivum cv. Hereward. The conditions noted are these: for Activity (%): at concentration with highest activity, activity of 10^−4 M kinetin set at 100%; for Concentration with highest activity: retention of chlorophyll in excised wheat leaf tips, 96 hours in the dark. As for the experimental part: Senescence Inhibition by Novel Compounds Tested on Winter Wheat Leaf Segments. Seeds of winter wheat, Triticum aestivum cv. Hereward, were washed under running water for 24 hours and then sown on vermiculite soaked with Knop's solution. They were placed in the grown chamber at 25° C. with a 16/8 hours light period at […]·m^−2·s^−1. After 7 days, the first leaf was fully developed and the second leaf had started to grow. A tip section of the first leaf, approximately 35 mm long, was removed from 5 seedlings and trimmed slightly to a combined weight of 100 mg. The basal ends of the five leaf tips were placed in the wells of a microtiter polystyrene plate containing […] of a cytokinin solution each. The entire plate was inserted into a plastic box lined with paper tissues soaked in distilled water to prevent leaf sections from drying out. After 96 hours incubation in the dark at 25° C., the leaves were removed and chlorophyll extracted by heating at 80° C. for 10 min in 5 ml of 80% ethanol (v/v). The sample volume was then restored to 5 ml by the addition of 80% ethanol (v/v). The absorbance of the extract was recorded at 665 nm. In addition, chlorophyll extracts from fresh leaves and leaf tips incubated in deionized water were measured. The set up of the assay is shown on FIG. 1. From the obtained data, the concentration with highest activity was selected for each compound tested. Relative activity of the compound at this concentration was calculated (see Table 2 below). […] The values shown are means of five replicates and the whole experiment was repeated twice.
The compounds to be tested were dissolved in dimethylsulfoxide (DMSO) and the solution brought up to 10^−3 M with distilled water.

The subject of data set [4] is cytokinin-dependent tobacco callus. Kind of data set: Growth of cytokinin-dependent tobacco callus (plant cell division). Format: cell-based, Nicotiana tabacum L. cv. Wisconsin 38. As to conditions: for Activity (%): at concentration with highest activity, activity of kinetin set at 100%. How it is done:
The effect on plant cell division. Cytokinin-dependent tobacco callus Nicotiana tabacum L. cv. Wisconsin 38 was maintained at 25° C. in darkness on modified MS medium, containing 4 μmol/l nicotinic acid, 2.4 μmol/l pyridoxine hydrochloride, 1.2 μmol/l thiamine, 26.6 μmol/l glycine, 1.37 μmol/l glutamine, 1.8 μmol/1 myo-inositol, 30 g/l of sucrose, 8 g/l of agar, 5.37 μmol/l NAA and 0.5 μmol/l BAP. Subcultivation was carried out every three weeks. Fourteen days before the bioassay, the callus tissue was transferred to the media without BAP. Biological activity was determined from the increase in fresh callus weight after four weeks of cultivation. Five replicates were prepared for each cytokinin concentration and the entire test was repeated twice. From the obtained data, the concentration with highest activity was selected for each compound tested. Relative activity at this concentration was calculated (see Table 4 below).
The cytokinins to be tested were dissolved in dimethylsulfoxide (DMSO) and the solution brought up to 10^−3M with distilled water.

For the next data set, the system named is melanoma cell line G-361. The data set can be described thus: In vitro cytotoxic activity (metabolisation of Calcein AM). Format: cell-based, human. The conditions noted are these: Homo sapiens, G-361 cells, 72 hours incubation, called GI50, read-out: Cell line tested/IC50 (μmol/L) G-361. In a few lines: (§3)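 Cells were pre-incubated 24 hours at 2.500-30.000 cells per well, then exposed to six 3-fold dilutions, usually from 100 μM top, for 72 hours at 37° C, 5% CO2, in triplicate. Calcein AM was added at 1 μg/ml final and fluorescence read after 1 hour; GI50 is the concentration halving Calcein AM conversion.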

For data set [5], the system named is osteosarcoma cell line HOS. The description is as above. Format: cell-based, human. The conditions noted are these: Homo sapiens, HOS cells, 72 hours incubation, called GI50, read-out: Cell line tested/IC50 (μmol/L) HOS. In a few lines:
as §3

Data set [6] deals with T-lymphoblastic leukemia cell line CEM. The description is as above. Format: cell-based, human. The conditions noted are these: Homo sapiens, CCRF-CEM, CEM cells, 72 hours incubation, called GI50, read-out: Cell line tested/IC50 (μmol/L) CEM. The procedure, abridged:
as §3

In data set [7] the test system is breast carcinoma cell line MCF-7. The description is as above. The conditions noted are these: Homo sapiens, MCF7 cells, 72 hours incubation, called GI50, read-out: Cell line tested/IC50 (μmol/L) MCF7. Format: cell-based, human. The procedure, abridged:
as §3

Data set [8] has as its system erytroid leukemia cell line K-562. The description is as above. Format: cell-based, human. The conditions noted are these: Homo sapiens, K562, K-562 cells, 72 hours incubation, called GI50, read-out: Cell line tested/IC50 (μmol/L) K-562. In a few lines: as §3
The subject of data set [9] is normal diploid fibroblasts BJ. The data set is described as above. Format: cell-based, human. The conditions noted are these: Homo sapiens, BJ cells, 72 hours incubation, called GI50, read-out: Cell line tested/IC50 (μmol/L) BJ. The procedure, abridged: as §3
Data set [10] has as its system Amaranthus caudatus cotyledon/hypocotyl explants. The data set can be described thus: Amaranthus bioassay (betacyanin content). Format: in vivo, Amaranthus caudatus var. atropurpurea. As to conditions: for Activity (%): at concentration with highest activity, activity of kinetin set at 100%; for Concentration with highest activity: betacyanin content, 48 hours in darkness. How it is done: Testing of Novel Compounds in Amaranthus bioassay. Standard Amaranthus bioassay was performed with several modifications. The seeds of Amaranthus caudatus var. atropurpurea were surface-sterilized in 10% N-chlorobenzene sulfonamide (w/v) for 10 min and washed 5 times in deionized water. They were placed in 14 cm Petri dishes containing paper tissues saturated with deionized water. After 72 hours of cultivation at 25° C. in darkness, the roots of the seedlings were cut off. The explants, consisting of two cotyledons and hypocotyls, were placed in 5 cm Petri dishes on two layers of filter paper soaked in 1 ml of incubation medium containing 10 μmol Na2HPO4—KH2PO4, pH 6.8, 5 μmol tyrosine and the cytokinin to be tested. There were 20 explants per dish. The procedure was carried out under a green safe light in a darkroom. After a 48 hours of incubation at 25° C. in darkness, betacyanin was extracted by freezing the explants in 4 ml 3.33 μM acetic acid. The concentration of betacyanin was determined by comparing the absorbance at 537 nm and 620 nm as follows: DA=A537nm−A620nm. From the obtained data, the concentration with highest activity was selected for each compound tested. Relative activity of the compound at this concentration was calculated (see Table 3 below). […] The values shown in Table 3 are means of five replicates and the entire test was repeated twice.
The cytokinins to be tested were dissolved in dimethylsulfoxide (DMSO) and the solution brought up to 10^−3 M with distilled water.

`c1coc(CNc2ncnc3c2ncn3C2CCCCO2)c1` (stereo not drawn) [6-Furfurylamino-9-(2-tetrahydropyranyl)purine]: the average moisture content result in the data set with SKH-1 hairless mice [1] is “higher than that of the vehicle”. In the data set with SKH-1 hairless mice [2], the “Mean Nuclei Stained” value is 5.3 ± 4.2.
For `Brc1nc2ncnc(NCc3ccccc3)c2[nH]1` [Compound 2, 6-Benzylamino-8-bromopurine], the GI20 in [3] is more than 50 µM. Further, the “Activity (%)” value with excised wheat leaf tips is 144.76 (±6) %; in data set [4], 174.83%. Also, in the data set on excised wheat leaf tips, the “Concentration with highest activity” value was 10^−4 mol/l. Moreover, the IC50 (with melanoma cell line G-361; in [5]; in data set [6]; in data set [7]; in data set [8]; in [9]) was more than 50 µmol/L throughout.
On to `Clc1nc2ncnc(NCc3ccccc3)c2[nH]1` [Compound 30, 6-Benzylamino-8-chloropurine], for which the GI20 in data set [3] was more than 100 µM. For the same compound, the “Activity (%)” value with excised wheat leaf tips was 124.81 (±1) %; in data set [4] it was 157.51%. Moreover, the “Concentration with highest activity” value with excised wheat leaf tips is recorded as 10^−4 mol/l.
In general, melting point refers to the temperature of the solid-liquid transition. As for `CN(C)c1nc2ncnc(NCc3ccccc3)c2[nH]1` [Compound 62, 6-Benzylamino-8-dimethylaminopurine], the melting point was 217 to 219 °C. For the same compound, in the data set on excised wheat leaf tips, the “Activity (%)” value is given as 106.13 (±1) % and the “Concentration with highest activity” value is listed as 10^−4 mol/l. For the same compound, the “Activity (%)” value in [4] turned out to be 165.64%.
`Sc1nc2ncnc(NCc3ccccc3)c2[nH]1` [Compound 138, 6-Benzylamino-8-sulphanylpurine]: the melting point is 267 to 269 °C. For the same compound, in [10], the “Activity (%)” value turned out to be 111.25% and the “Concentration with highest activity” value is 10^−4 mol/l. Besides, in the data set on excised wheat leaf tips, the “Activity (%)” value is 140.45 (±3) % and the “Concentration with highest activity” value is on record as 10^−4 mol/l. Moreover, the “Activity (%)” value in data set [4] amounted to 156.66%.
For the compound `CCOC(=O)c1nc2ncnc(NCc3ccccc3)c2[nH]1` [Compound 195, 6-Benzylamino-8-ethoxycarbonylpurine], the melting point was in the range of 181 to 185 °C. Moreover, in [10], the “Activity (%)” value stood at 122.55% and the “Concentration with highest activity” value is 10^−4 mol/l. In addition, in the data set with excised wheat leaf tips, the “Activity (%)” value is listed as 122.06 (±2) % and the “Concentration with highest activity” value is reported as 10^−4 mol/l.
For the compound `C/C(=C\CNc1ncnc2[nH]cnc12)CO` [Zeatin], in the data set on SKH-1 hairless mice [1], the average moisture content entry is recorded as “higher than that of the vehicle”. The “Mean Nuclei Stained” value in the data set on SKH-1 hairless mice [2] was 3.5 ± 3.4 mm.
With `c1coc(CNc2ncnc3[nH]cnc23)c1` [kinetin, reference compound], the “Activity (%)” value (in data set [10]; in the data set with excised wheat leaf tips; in data set [4]) was 100% throughout. Also, the “Concentration with highest activity” value in [10] was 10^−5 mol/l; with excised wheat leaf tips, 10^−4 mol/l. The “range of the optimal concentration” value in data set [4] (tobacco callus growth) is given as “sharp concentration optimum”.
